Target: DppA (Rv3666c), substrate-binding protein of the Dpp transporter (Mycobacterium tuberculosis, UniProt I6X811, W442A)

## C=CC1=C(C)C2=Cc3c(C=C)c(C)c4[n]3[Fe]([Cl])[n]3c(c(C)c(CCC(=O)O)c3=CC3=NC(=C4)C(C)=C3CCC(=O)O)=CC1=N2 [hemin]
  SPR; binds but dissociates quickly, reduced affinity: Surface plasmon resonance showed that heme bound to the DppAW442A protein but dissociated quickly

Source: PMC6751184, “Heme and hemoglobin utilization by Mycobacterium tuberculosis” (Nature Communications, 2019)
